Active and inactive are the calls of the source. The calls are words filed in the database; no cut-off is given here.
Experiments:
[1] = target: Cyclin-dependent kinase 4/cyclin D1 (Homo sapiens) (UniProt P11802+P24385); experiment: Inhibition of CDK4/cyclin D1 (unknown origin) at 10 nM relative to control; assay type: protein-complex assay
DMS-114 = experiment: Inhibition of cell invasion in human DMS-114 cells assessed as decrease in number of cells passing through upper chamber at 2to 4 nM incubated for 48 hrs by crystal violet staining based microscopic analysis; assay type: functional
NCI-H69 [2] = experiment: Cell cycle arrest in human NCI-H69 cells assessed as increase in G1 phase population incubated for 36 hrs by PI staining based flow cytometric analysis; assay type: functional; settings: dose 0.5-4 nM
[3] = target: Cyclin-dependent kinase 9 (Homo sapiens) (UniProt P50750); experiment: Inhibition of CDK9-related signaling in human NCI-H69 cells assessed as decrease in RNA polymerase II phosphorylation at Ser2 residue at 0.5 to 10 nM incubated for 24 hrs by Western blot analysis; assay type: cell-based; settings: dose 0.5-10 nM
NCI-H69 [4] = experiment: Induction of apoptosis in human NCI-H69 cells assessed as decrease in BCL-2 expression incubated for 36 hrs by Western blot analysis; assay type: functional, cell-based
[5] = target: T1, Cyclin-dependent kinase 5/CDK5 activator 1 (Homo sapiens) (UniProt Q00535+Q15078); experiment: Inhibition of CDK5/p25NCK (unknown origin) at 10 nM relative to control; assay type: protein-complex assay
[6] = target: T2, Protein cereblon/Cyclin-dependent kinase 9 (Homo sapiens, UniProt P50750+Q96SW2); experiment: PROTAC activity at CRBN/CDK9 in human NCI-H446 cells assessed as increase in CDK9 ubiquitination preincubated with MG132 for 2 hrs followed by compound addition and measured after 3 hrs by co-immunoprecipitation analysis; assay type: cell-based
NCI-H69 [7] = experiment: Induction of apoptosis in human NCI-H69 cells assessed as decrease in MCL-1 expression incubated for 36 hrs by Western blot analysis; assay type: functional, cell-based
[8] = system: Small cell lung cancer cell line; experiment: Antitumor activity against LDI-0025-362145 patient derived Small cell lung cancer cell line xenografted in BALB/c nude mouse assessed as reduction in tumor growth at 25 mg/kg, po administered once daily for 7 days; assay type: functional, organism-based; settings: Homo sapiens, time 7.0 day
NCI-H69 [9] = experiment: Induction of apoptosis in human NCI-H69 cells assessed as increase in cleaved caspase-3 level incubated for 36 hrs by Western blot analysis; assay type: functional, cell-based
[10] = target: T2, Protein cereblon/Cyclin-dependent kinase 9; experiment: PROTAC activity at CRBN/CDK9 in human NCI-H446 cells assessed as induction of CDK9 degradation at 10 nM by Western blot analysis relative to control; assay type: cell-based
NCI-H69 [11] = experiment: Induction of apoptosis in human NCI-H69 cells assessed as increase in p53 level incubated for 36 hrs by Western blot analysis; assay type: functional, cell-based
[12] = target: CDK6/cyclin D3 (Homo sapiens) (UniProt P30281+Q00534); experiment: Inhibition of CDK6/cyclin D3 (unknown origin) at 10 nM relative to control; assay type: protein-complex assay
[13] = target: Cyclin-dependent kinase 13/Cyclin-K (Homo sapiens) (UniProt Q14004+O75909); experiment: Inhibition of CDK13/Cyclin K (unknown origin) at 10 nM relative to control; assay type: protein-complex assay
[14] = target: T2, Protein cereblon/Cyclin-dependent kinase 9; experiment: In vivo PROTAC activity at CRBN/CDK9 in female BALB/c nude mouse xenografted with human NCI-H446 cells assessed as induction of CDK9 degradation in tumor at 25 mg/kg, po measured after 24 hrs by Western blot analysis; assay type: functional, organism-based
[15] = system: Small cell lung cancer cell line; experiment: Antitumor activity against LDI-2025-362195 patient derived Small cell lung cancer cell line xenografted in BALB/c nude mouse assessed as reduction in tumor growth at 25 mg/kg, po administered once daily for 7 days; assay type: functional, organism-based; settings: Homo sapiens, time 7.0 day
NCI-H69 [16] = experiment: Inhibition of colony formation in human NCI-H69 cells at 2 to 4 nM incubated for 8 days by crystal violet staining based analysis; assay type: functional, cell-based; settings: dose 2-4 nM, time 8.0 day
[17] = target: T1, Cyclin-dependent kinase 5/CDK5 activator 1 (Homo sapiens); experiment: Inhibition of CDK5/p35NCK (unknown origin) at 10 nM relative to control; assay type: protein-complex assay
NCI-H446 [18] = experiment: Antitumor activity against human NCI-H446 cells expressing luciferase-GFP xenografted in female NU-NU mouse model assessed as decrease in tumor burden at 12.5 to 25 mg/kg, po administered for 19 days; assay type: functional, organism-based; settings: dose 12.5-25 mg/kg, time 19.0 day
[19] = target: T2, Protein cereblon/Cyclin-dependent kinase 9; experiment: PROTAC activity at CRBN/CDK9 in human NCI-H69 cells assessed as induction of CDK9 degradation at 10 nM by Western blot analysis relative to control; assay type: cell-based
[20] = target: CDK1/Cyclin E (Homo sapiens) (UniProt P06493+P24864); experiment: Inhibition of CDK1/cyclin E1 (unknown origin) at 10 nM relative to control; assay type: protein-complex assay
NCI-H446 [21] = experiment: Cell cycle arrest in human NCI-H446 cells assessed as increase in G1 phase population incubated for 36 hrs by PI staining based flow cytometric analysis; assay type: functional; settings: dose 0.5-2 nM
[22] = target: Cyclin-dependent kinase 9 (Homo sapiens) (UniProt P50750); experiment: Inhibition of CDK9-related signaling in human NCI-H69 cells assessed as reduction in c-MYC expression level at 0.5 to 10 nM incubated for 24 hrs by Western blot analysis; assay type: cell-based; settings: dose 0.5-10 nM
[23] = target: CDK9/cyclin T1 (Homo sapiens) (UniProt O60563+P50750); experiment: Inhibition of CDK9/Cyclin T1 (unknown origin) at 10 nM relative to control; assay type: protein-complex assay
NCI-H69 [24] = experiment: Downregulation of CDK9 protein level in human NCI-H69 cells at 1 to 10 nM incubated for 8 hrs by Western blot analysis; assay type: functional, cell-based; settings: dose 1-10 nM
NCI-H69 [25] = experiment: Induction of apoptosis in human NCI-H69 cells incubated for 36 hrs by Annexin V-FITC/PI staining based flow cytometric analysis; assay type: functional, cell-based; settings: dose 1-8 nM
[26] = target: T2, Protein cereblon/Cyclin-dependent kinase 9; experiment: PROTAC activity at CRBN/CDK9 in human NCI-H69 cells assessed as induction of CDK9 degradation preincubated with thalidomide for 2 hrs followed by compound addition and measured after 3 hrs by Western blot analysis; assay type: cell-based
NCI-H446 [27] = experiment: Antiproliferative activity against human NCI-H446 cells assessed as reduction in cell viability incubated for 72 hrs in presence of thalidomide by celltiter-Glo assay; assay type: functional, cell-based
[28] = target: CDK12/Cyclin K (Homo sapiens) (UniProt O75909+Q9NYV4); experiment: Inhibition of CDK12/Cyclin K (unknown origin) at 10 nM relative to control; assay type: protein-complex assay
DMS-53 = experiment: Inhibition of cell invasion in human DMS-53 cells assessed as decrease in number of cells passing through upper chamber at 2to 4 nM incubated for 48 hrs by crystal violet staining based microscopic analysis; assay type: functional
[29] = target: CDK6/cyclin D1 (Homo sapiens) (UniProt P24385+Q00534); experiment: Inhibition of CDK6/cyclin D1 (unknown origin) at 10 nM relative to control; assay type: protein-complex assay
[30] = target: Cyclin-Y/Cyclin-dependent kinase 16 (Homo sapiens) (UniProt Q00536+Q8ND76); settings: dose 10.0 nM
NCI-H446 [31] = experiment: Antitumor activity against human NCI-H446 cells expressing luciferase-GFP xenografted in female NU-NU mouse model assessed as decrease in systemic metastasis at 12.5 to 25 mg/kg, po administered for 19 days; assay type: functional, organism-based; settings: dose 12.5-25 mg/kg, time 19.0 day
[32] = target: T2, Protein cereblon/Cyclin-dependent kinase 9; experiment: PROTAC activity at CRBN/CDK9 in human NCI-H69 cells assessed as induction of CDK9 degradation by measuring reduction in half-life incubated upto 24 hrs in presence of cycloheximide by Western blot analysis; assay type: cell-based

T2 sequence (P50750 whole entry, looked up): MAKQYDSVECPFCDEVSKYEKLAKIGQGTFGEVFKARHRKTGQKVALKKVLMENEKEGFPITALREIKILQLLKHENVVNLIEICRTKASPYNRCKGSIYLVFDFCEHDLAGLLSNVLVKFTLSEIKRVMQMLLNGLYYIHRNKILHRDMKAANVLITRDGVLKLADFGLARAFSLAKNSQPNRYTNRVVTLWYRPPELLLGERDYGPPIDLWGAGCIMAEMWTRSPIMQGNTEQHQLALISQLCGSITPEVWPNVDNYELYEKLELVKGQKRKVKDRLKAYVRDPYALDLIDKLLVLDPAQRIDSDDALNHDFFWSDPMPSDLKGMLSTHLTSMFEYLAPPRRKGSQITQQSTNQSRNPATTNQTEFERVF
T2 sequence (Q96SW2 whole entry, looked up): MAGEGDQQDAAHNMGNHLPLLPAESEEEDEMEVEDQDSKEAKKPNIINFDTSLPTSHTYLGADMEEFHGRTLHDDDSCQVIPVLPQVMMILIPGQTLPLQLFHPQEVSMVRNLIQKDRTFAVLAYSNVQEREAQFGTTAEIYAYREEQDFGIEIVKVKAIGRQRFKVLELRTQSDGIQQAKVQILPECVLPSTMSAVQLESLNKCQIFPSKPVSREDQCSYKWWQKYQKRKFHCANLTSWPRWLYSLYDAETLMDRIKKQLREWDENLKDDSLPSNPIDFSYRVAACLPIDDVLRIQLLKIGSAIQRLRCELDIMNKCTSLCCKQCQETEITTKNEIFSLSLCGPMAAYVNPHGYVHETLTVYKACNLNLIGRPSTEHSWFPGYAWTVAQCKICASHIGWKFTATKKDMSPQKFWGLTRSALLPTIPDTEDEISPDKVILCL
T1 sequence (Q00535 whole entry): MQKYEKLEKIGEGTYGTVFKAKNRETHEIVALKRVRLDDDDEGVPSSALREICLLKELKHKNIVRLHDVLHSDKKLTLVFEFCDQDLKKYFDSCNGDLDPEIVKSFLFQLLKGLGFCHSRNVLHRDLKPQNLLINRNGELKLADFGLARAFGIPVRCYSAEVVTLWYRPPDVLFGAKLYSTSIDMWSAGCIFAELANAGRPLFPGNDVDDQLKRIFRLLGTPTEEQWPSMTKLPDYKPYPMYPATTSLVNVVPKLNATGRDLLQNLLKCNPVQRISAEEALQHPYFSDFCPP
T1 sequence (Q15078 99-307 partner limits assumed): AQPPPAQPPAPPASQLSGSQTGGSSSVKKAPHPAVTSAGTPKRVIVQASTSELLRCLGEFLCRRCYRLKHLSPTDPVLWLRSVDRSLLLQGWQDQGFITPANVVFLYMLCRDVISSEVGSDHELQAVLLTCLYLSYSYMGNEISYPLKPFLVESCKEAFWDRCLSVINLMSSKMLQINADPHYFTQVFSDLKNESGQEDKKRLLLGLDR
Chain of Cyclin-dependent kinase 9 (Homo sapiens) (P50750 whole entry): as the sequence (P50750 whole entry, looked up) above
Chain of Cyclin-dependent kinase 13/Cyclin-K (Homo sapiens) (O75909 whole entry, looked up): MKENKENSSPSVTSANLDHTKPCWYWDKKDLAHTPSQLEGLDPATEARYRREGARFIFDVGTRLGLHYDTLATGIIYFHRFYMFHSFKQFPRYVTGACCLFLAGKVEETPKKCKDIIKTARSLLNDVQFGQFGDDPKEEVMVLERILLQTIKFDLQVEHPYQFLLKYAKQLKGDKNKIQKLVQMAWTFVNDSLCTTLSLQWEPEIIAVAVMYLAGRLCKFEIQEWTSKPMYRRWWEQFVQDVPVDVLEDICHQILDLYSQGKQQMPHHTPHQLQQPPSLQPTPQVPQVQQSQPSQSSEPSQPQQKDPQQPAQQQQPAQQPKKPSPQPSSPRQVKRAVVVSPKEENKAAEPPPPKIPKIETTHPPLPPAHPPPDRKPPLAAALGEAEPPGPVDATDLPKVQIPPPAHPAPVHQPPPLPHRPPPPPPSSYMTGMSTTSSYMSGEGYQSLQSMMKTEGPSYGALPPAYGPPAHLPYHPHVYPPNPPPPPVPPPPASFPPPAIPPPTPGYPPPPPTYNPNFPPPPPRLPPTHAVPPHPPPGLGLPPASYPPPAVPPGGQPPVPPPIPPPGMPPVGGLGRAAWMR
Chain of Cyclin-dependent kinase 13/Cyclin-K (Homo sapiens) (Q14004 whole entry, looked up): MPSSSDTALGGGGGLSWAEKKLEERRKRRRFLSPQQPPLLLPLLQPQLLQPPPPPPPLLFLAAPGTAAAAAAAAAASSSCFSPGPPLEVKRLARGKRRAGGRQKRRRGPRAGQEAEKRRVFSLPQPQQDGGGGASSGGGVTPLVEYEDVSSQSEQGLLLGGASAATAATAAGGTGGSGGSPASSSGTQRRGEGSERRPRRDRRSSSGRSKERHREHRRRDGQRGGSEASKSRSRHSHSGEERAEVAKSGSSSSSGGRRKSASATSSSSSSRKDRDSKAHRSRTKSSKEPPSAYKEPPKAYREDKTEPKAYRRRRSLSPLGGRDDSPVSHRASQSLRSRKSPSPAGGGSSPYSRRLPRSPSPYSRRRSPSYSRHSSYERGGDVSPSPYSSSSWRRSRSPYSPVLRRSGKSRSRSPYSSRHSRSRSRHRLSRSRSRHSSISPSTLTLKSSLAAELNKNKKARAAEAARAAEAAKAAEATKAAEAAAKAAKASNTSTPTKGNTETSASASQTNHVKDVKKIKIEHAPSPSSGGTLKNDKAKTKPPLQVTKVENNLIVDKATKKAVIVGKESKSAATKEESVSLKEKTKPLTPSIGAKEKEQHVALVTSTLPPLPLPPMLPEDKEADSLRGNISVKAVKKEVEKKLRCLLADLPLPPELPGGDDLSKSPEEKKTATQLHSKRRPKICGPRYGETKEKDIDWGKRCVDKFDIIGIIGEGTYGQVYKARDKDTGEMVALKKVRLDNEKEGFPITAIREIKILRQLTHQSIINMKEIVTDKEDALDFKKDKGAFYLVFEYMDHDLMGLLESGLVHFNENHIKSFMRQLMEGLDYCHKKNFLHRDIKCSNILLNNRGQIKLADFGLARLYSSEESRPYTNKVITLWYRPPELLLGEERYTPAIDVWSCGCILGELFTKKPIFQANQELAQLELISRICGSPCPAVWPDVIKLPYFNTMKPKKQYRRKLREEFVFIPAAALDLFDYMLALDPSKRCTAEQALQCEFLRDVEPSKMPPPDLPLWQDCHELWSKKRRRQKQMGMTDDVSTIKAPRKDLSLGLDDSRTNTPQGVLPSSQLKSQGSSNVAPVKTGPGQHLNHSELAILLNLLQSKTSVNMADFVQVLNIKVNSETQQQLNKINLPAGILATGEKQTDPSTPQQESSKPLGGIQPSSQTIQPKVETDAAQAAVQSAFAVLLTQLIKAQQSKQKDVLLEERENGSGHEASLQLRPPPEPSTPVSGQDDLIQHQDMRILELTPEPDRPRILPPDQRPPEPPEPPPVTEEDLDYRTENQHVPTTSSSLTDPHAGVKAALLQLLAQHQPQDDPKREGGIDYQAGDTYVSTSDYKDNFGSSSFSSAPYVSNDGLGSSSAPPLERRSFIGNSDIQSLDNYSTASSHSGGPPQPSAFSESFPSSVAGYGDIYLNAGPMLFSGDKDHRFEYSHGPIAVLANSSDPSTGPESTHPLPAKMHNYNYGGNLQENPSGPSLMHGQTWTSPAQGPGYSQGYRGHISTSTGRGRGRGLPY
Chain of CDK12/Cyclin K (Homo sapiens) (O75909 whole entry, looked up): as the sequence (O75909 whole entry, looked up) above
Chain of CDK12/Cyclin K (Homo sapiens) (Q9NYV4 whole entry, looked up): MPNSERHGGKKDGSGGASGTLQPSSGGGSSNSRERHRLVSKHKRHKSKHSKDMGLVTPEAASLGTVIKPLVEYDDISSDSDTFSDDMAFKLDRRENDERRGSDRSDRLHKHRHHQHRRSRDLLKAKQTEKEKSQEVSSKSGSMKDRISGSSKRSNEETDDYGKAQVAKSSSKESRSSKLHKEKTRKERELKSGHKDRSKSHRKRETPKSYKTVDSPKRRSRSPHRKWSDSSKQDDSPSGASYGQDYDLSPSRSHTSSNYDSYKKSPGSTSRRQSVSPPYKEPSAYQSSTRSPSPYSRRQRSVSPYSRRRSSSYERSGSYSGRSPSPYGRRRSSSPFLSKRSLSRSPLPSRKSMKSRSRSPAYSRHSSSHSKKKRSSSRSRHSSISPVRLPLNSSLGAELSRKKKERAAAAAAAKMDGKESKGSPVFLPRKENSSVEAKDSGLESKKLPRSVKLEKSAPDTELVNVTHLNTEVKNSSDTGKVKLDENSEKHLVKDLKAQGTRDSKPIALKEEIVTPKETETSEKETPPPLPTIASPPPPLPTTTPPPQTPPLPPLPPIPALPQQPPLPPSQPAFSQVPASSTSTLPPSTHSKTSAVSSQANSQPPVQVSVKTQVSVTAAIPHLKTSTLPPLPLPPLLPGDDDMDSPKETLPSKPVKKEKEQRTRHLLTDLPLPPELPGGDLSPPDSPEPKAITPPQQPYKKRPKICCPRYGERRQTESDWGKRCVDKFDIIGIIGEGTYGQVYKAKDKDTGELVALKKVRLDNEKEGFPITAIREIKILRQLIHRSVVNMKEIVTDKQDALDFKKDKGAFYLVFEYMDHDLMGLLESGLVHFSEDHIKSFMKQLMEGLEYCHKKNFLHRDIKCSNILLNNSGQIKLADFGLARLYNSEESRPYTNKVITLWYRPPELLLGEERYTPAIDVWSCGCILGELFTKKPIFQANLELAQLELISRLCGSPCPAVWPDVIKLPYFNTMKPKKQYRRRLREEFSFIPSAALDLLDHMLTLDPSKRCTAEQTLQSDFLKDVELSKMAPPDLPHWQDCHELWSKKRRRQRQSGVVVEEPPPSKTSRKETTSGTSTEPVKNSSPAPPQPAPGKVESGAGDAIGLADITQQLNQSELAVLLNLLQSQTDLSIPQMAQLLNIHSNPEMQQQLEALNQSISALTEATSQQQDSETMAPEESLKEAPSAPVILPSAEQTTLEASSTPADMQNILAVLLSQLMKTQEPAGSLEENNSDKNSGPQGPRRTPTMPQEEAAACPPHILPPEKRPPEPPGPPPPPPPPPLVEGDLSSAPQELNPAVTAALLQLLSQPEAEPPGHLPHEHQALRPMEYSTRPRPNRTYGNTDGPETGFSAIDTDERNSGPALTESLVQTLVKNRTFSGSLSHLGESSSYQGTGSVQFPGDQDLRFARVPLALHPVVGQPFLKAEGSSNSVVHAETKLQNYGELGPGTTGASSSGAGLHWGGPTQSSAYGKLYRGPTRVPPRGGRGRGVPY

O=C1CCC(Nc2cccc(N3CCN(CC4CCN(CC(=O)N5CCC(NC(=O)c6n[nH]cc6NC(=O)c6c(Cl)cccc6Cl)CC5)CC4)CC3)c2)C(=O)N1 (centres undefined)
inhibition [1]: 37%
inhibition (DMS-114): Active
Activity (NCI-H69 [2]): Dose-dependent-effect
inhibition [3]: Active
Activity (NCI-H69 [4]): Dose-dependent-effect
inhibition [5]: 52%
Activity [6]: Active
Activity (NCI-H69 [7]): Dose-dependent-effect
Activity [8]: Active
Activity (NCI-H69 [9]): Dose-dependent-effect
Activity [10]: 93.4%
Activity (NCI-H69 [11]): Dose-dependent-effect
inhibition [12]: 15%
inhibition [13]: 56%
Activity [14]: Not active; Very Short Self-Renewal Period For Cdk9 Observed
Activity [15]: Active
inhibition (NCI-H69 [16]): Active
inhibition [17]: 45%
Activity (NCI-H446 [18]): Active
Activity [19]: 91.2%
inhibition [20]: 24%
Activity (NCI-H446 [21]): Dose-dependent-effect
inhibition [22]: Active
inhibition [23]: 95%
Activity (NCI-H69 [24]): Active
Activity (NCI-H69 [25]): Dose-dependent-effect
Activity [26]: inactive
Activity (NCI-H446 [27]): inactive
inhibition [28]: 38%
inhibition (DMS-53): Active
inhibition [29]: 34%
inhibition [30]: 38%
Activity (NCI-H446 [31]): Active
Activity [32]: Active

Source: ChEMBL document CHEMBL6121063, “Identification of a Potent and Selective CDK9 Degrader as a Targeted Therapeutic Option for the Treatment of Small-Cell Lung Cancer” (J Med Chem, 2025)
